Reference: patent publication US10632117B2, “GSK3B and uses thereof in the diagnostic and treatment of hypopigmentation disorders” (INSERM (INSTITUT NATIONAL DE LA SANTE ET DE LA RECHERCHE …, priority 2014, dated 2020)

How the values were obtained:
Type in all cases: cell-based, human
[1] = system: melanocyte stem cells in depigmented skin from vitiligo patients; assay: Ex vivo depigmented vitiligo skin, immunohistostaining for co-expression of DCT and PAX3; details: 14 days, every other day, SKL2001 40 μM, CHIR99021 3 μM, LiCl 20 μM, immunofluorescence
Description: Depigmented skin from vitiligo patients [A (control culture medium)] were stimulated in ex vivo culture with WNT agonist SKL2001 (40 μM) (B), GSK3β inhibitor CHIR99021 (3 μM) (C) or GSK3β inhibitor LiCl 20 μM (D) every other day to activate the WNT pathway. After 14 days, the skin response was analyzed by immunohistostaining with pre-melanocytes markers: a DCT staining (green) and PAX3 staining (red).
(§1) For vitiligo skin biopsies, after verification of the absence of melanocytes with Wood's lamp, two or three 6 mm biopsies composed of dermis plus epidermis were taken into lesional skin from vitiligo patients (n=9). The biopsies are rapidly put on transwell chamber of 0.4 μm (Becton Dickinson) and kept on semi liquid culture conditions in “Skin long term culture medium” (Biopredic). The skin was maintained at 37° C. in a wet 5% CO2, atmosphere.
(§2) The culture medium supplemented with Forskolin (Sigma Aldrich), LiCl (Sigma Aldrich), CHIR99021 (Calbiochem) or SKL2001 (Calbiochem) was changed […] during 14 days.
Biopsies were fixed with 4% formol, embedded in paraffin, cut with microtome of […] sections and fixed on superfrost plus slides (Thermoscientific). […]

[2] = system: WNT pathway; assay: Ex vivo culture of lesional vitiligo skin biopsies with WNT pathway activators, RT-qPCR of WNT family and LEF; details: 14 days, stimulation every other day, CHIR99021 3 μM, LiCl 20 μM, SKL2001 40 μM
Description: as §1, §2
(§3) mRNA from melanocytes and keratinocytes was extracted with RNeasy kit (Qiagen). The biopsies are cut and disrupted with tissue ruptor (Qiagen) and the mRNA was extracted with RNeasy kit (Qiagen). cDNA were synthesized from 300 ng to 1 μg of mRNA with the Reverse Transcription System (Promega). Relative quantification of gene expression was measured by real time qPCR with Sybr green reagent (Life technology) on Step one system.
(§4) In order to induce the differentiation of melanocyte stem cells, they pharmacologically activated the WNT pathway in vitiligo skin cultured ex vivo as shown previously. They used two methods to activate the WNT pathway: a WNT agonist (SKL2001) and two GSK3β inhibitors: lithium chloride (LiCl) and a commercial specific inhibitor (CHIR99021). They biopsied 9 vitiligo subjects (6 mm punch) on diverse body locations ([…], 2 on trunk, 2 on leg, 1 on arm and 1 on axilla) and treated the ex vivo culture model during 14 days with a systemic stimulation every other day with the WNT activators.
(§5) They evaluated the activation of WNT pathway by the mRNA level of WNTs (TCF/LEF1 and the melanogenesis pathway by the mRNA level of MITF, DCT, PAX3 and BRn2) within the skin.

[3] = system: depigmented skin from vitiligo patients; assay: Ex vivo culture of lesional vitiligo skin biopsies, RT-qPCR of melanoblast / pre-melanocyte markers; details: 14 days, SKL2001 40 μM; for mRNA level of early melanoblast marker Brn2 / mRNA level of early melanoblast marker PAX3: CHIR99021 3 μM, LiCl 20 μM
Description: as §1, §2, §3, §4, §5

[4] = system: NHK (keratinocytes); assay: Oxidative stress (H2O2) in NHK: qPCR of LEF and WNT family, TCF/LEF luciferase reporter; details: 24 hours, 25 to 100 μM H2O2
Description: (§6) NHM (A) and NHK (B) and whole skin in ex vivo culture (C) were stimulated 24 hours with 25 to 100 μM of H2O2. After mRNA extraction, a reverse transcription was performed and the relative gene expression of LEF1 was analyzed with qPCR.
(§7) (A) NHM, (B) NHK and (C) whole skin in ex vivo culture were stimulated 24 hours with 25 to 100 μM of H2O2. After mRNA extraction, a reverse transcription was performed and the relative gene expression of WNT family was analyzed with qPCR.
(§8) NHMs and NHKs are obtained from the foreskin of phototype IV children as described previously. Briefly, epidermal cells are obtained by overnight digestion of the skin in a dispase solution (Roche) at 4° C. followed by the digestion of the epidermis in a trypsin/EDTA solution during 20 minutes at 37° C. […]
(§9) mRNA from melanocytes and keratinocytes was extracted with RNeasy kit (Qiagen). […] Relative quantification of gene expression was measured by real time qPCR with Sybr green reagent (Life technology) on Step one system.
(§10) NHK and NHM were co-infected with the lentivirus TCF/LEF Reporter Luciferase and Cignal Lenti Reporter Control Renilla (Qiagen) and the infected cells were selected with Puromycin for 14 days. NHM and NHK selected were stimulated 24 h with SKL2001 and H2O2 and the TCF/LEF activity was measured with Dual Luciferase Reporter Assay System (Promega).

[5] = system: whole skin in ex vivo culture; assay: Oxidative stress (H2O2) in whole skin in ex vivo culture: qPCR of LEF and WNT family; details: skin biopsies ex vivo, 24 hours, 25 to 100 μM H2O2
Description: as §6, §7
Skin from abdominoplasty surgery was used to the development of the ex vivo skin culture model. The subcutaneous fat was removed and biopsies of 6 mm were done in the skin composed of dermis and epidermis.
as §3

[6] = system: NHM (melanocytes); assay: Oxidative stress (H2O2) in NHM: qPCR of LEF and WNT family, TCF/LEF luciferase reporter; details: 24 hours, 25 to 100 μM H2O2
Description: as §6, §7, §8, §9, §10

Compound	co-expression of DCT and PAX3 (differentiation of melanocyte stem cells into pre-melanocytes) [1]	relative expression of LEF mRNA [2]	relative expression of WNT family mRNA [2]	mRNA level of early melanoblast marker Brn2 [3]	mRNA level of early melanoblast marker PAX3 [3]	expression of LEF [4]	expression of the majority of WNT [4]	expression of LEF [5]	expression of most of the WNT family [5]	expression of LEF [6]	expression of the majority of WNT [6]	level of MITF mRNA [3]
Cc1c[nH]c(-c2cnc(NCCNc3ccc(C#N)cn3)nc2-c2ccc(Cl)cc2Cl)n1 [CHIR99021]	melanoblast in differentiation within the dermis	increase	increase	up-regulated	up-regulated							
OO [H2O2]						decreased	decreased	decrease	decrease	decreased	decreased	
O=C(NCCCn1ccnc1)c1cc(-c2ccco2)on1 [SKL2001]	melanoblast in differentiation within the dermis	increase	increase	up-regulated	up-regulated							increased
